From patent US4795808A, “Anthracycline tetrasaccharides” (Hoechst Aktiengesellschaft, priority 1985, dated 1989) come the findings set out here.

This test has as its system L1210 leukemia cells. The test can be described thus: cell proliferation test on L1210 leukemia cells (C14-thymidine incorporation). Type of test: cell-based. Particulars: Mus musculus, 72 hours, 37° C., 5% of CO2, concentration which reduces incorporation of radioactive thymidine by 50% vs control. As for the experimental part: The inhibiting action was determined (cell proliferation test) as described below:
[…] cells in the exponential growth phase (5×10^3 /ml in RPMI 1640) are incubated in a microtiter plate with different concentrations of the test substance for 72 hours (37° C., 5% of CO2, 95% relative atmospheric humidity). Controls comprise cells incubated only with fresh medium. All the determinations are carried out as 4-fold determinations. After 65 hours, 50 μl of C14-thymidine (1.5 μC/ml) are added in order to radiolabel the cell DNA. After incubation for 7 hours, the cells are filtered off with suction and the DNA is precipitated with 5% strength trichloroacetic acid and washed with water and methanol in succession. After drying at 50° C., the radioactivity incorporated into the DNA is determined after addition of 5 ml of scintillation liquid. The results are stated as ratios of the scintillation index after incubation with the test substance in percent of the untreated control. From the measurement values thus obtained, the dose/effect curve is determined, and the IC50, that is to say the concentration which reduces the incorporation of radioactive thymidine by 50% under test conditions in comparison with the control, is determined graphically.

What is called IC50 is the concentration at which inhibition is half-maximal.

`CCC1(O)CC(OC2CC(N(C)C)C(OC3CCC(OC4C=CC(=O)C(C)O4)C(C)O3)C(C)O2)c2c(O)c3c(c(O)c2C1OC1CC(N(C)C)C(O)C(C)O1)C(=O)c1cccc(O)c1C3=O` (stereo not shown) [cytorhodin SE gluconate]: the 50% inhibitory concentration (IC50) stood at 6 ng/mL.
